Laboratory results as given in ChEMBL document CHEMBL2385026, “Identification of C-2 hydroxyethyl imidazopyrrolopyridines as potent JAK1 inhibitors with favorable physicochemical properties and high selectivity over JAK2” (J Med Chem, 2013).
Values after ≈ are worked out from the molar mass of the structure shown.

Key:
[1] = Hepatic clearance in human liver microsomes by LC/MS/MS analysis; type: ADME, Microsome
[2] = Hepatic clearance in human hepatocytes after 1 to 4 hrs by LC/MS/MS analysis; type: ADME, cell-based, Liver, Hepatocyte
[3] = Apparent permeability across apical to basolateral side in dog MDCK cells; type: ADME, cell-based, Canis lupus familiaris
[4] = target: T1, Tyrosine-protein kinase JAK1 (Homo sapiens, UniProt P23458)
T1 sequence (P23458 whole entry): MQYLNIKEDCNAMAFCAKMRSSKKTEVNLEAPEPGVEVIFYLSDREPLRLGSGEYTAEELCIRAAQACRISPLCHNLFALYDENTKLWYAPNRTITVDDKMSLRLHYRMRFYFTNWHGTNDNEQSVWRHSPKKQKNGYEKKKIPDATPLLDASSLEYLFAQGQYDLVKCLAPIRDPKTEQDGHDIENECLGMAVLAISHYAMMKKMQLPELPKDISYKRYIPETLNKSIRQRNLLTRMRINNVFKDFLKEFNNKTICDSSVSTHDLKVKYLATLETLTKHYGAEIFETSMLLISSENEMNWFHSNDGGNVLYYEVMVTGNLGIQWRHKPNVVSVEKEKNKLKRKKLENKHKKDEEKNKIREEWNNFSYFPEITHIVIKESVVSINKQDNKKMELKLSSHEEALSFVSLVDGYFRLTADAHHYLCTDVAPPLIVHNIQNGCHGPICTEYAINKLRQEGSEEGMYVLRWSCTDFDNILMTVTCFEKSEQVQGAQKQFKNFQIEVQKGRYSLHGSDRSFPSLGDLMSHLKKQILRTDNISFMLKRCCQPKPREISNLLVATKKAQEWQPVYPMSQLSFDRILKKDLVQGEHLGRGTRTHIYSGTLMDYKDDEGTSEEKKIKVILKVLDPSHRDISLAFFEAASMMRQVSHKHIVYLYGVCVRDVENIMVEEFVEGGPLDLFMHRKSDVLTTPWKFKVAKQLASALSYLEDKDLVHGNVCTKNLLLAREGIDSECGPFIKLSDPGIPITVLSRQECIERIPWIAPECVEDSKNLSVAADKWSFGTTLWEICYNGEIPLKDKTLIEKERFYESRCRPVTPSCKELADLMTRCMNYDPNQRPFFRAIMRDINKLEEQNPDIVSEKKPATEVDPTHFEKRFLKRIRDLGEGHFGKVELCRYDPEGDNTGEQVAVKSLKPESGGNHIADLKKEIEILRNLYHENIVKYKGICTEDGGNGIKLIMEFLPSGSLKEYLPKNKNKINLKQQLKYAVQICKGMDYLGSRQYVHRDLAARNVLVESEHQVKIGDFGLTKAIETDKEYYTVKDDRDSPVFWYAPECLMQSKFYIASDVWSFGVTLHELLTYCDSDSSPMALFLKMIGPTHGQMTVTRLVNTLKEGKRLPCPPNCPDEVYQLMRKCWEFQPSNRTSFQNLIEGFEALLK

[5] = target: T1, Tyrosine-protein kinase JAK1; remark: listed apart in the source
[6] = target: T1, Tyrosine-protein kinase JAK1; remark: listed apart in the source
[7] = target: T2, Tyrosine-protein kinase JAK2 (Homo sapiens, UniProt O60674); type: cell-based, TF-1
T2 sequence (O60674 whole entry): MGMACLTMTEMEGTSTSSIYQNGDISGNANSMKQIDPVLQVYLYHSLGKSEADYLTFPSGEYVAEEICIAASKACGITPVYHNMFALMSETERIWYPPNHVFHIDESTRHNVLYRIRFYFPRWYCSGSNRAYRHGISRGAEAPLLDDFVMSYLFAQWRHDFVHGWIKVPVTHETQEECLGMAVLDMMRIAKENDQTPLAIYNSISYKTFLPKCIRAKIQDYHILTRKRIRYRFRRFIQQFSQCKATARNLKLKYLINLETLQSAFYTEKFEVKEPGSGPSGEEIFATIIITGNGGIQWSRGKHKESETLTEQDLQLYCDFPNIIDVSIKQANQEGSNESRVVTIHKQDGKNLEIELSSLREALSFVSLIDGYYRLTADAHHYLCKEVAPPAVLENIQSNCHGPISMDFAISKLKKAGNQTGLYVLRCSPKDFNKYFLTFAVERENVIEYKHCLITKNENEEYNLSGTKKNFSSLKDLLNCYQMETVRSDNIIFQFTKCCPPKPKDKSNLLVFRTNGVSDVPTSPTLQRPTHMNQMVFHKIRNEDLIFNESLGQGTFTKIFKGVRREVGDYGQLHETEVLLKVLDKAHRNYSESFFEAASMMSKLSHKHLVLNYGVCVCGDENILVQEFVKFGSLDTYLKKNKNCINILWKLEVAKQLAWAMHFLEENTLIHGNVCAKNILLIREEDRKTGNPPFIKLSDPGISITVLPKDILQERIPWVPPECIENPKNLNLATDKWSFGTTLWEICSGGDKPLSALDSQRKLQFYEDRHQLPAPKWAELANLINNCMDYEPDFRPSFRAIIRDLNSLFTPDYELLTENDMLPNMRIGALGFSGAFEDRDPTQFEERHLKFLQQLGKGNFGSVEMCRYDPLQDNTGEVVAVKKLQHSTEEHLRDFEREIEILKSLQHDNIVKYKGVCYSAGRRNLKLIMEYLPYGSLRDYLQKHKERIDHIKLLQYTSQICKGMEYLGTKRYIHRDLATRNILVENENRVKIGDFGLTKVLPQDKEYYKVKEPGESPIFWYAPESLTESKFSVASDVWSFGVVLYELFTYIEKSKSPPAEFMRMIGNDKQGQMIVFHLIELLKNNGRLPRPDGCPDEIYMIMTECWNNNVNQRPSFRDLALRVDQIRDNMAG

[8] = target: T2, Tyrosine-protein kinase JAK2
Cytochrome P450 3A4 [9] = target: T3, Cytochrome P450 3A4 (Homo sapiens, UniProt P08684); assay: Reversible inhibition of CYP3A4 in human liver microsomes using testosterone as substrate by LC/MS/MS analysis; type: ADME, Microsome
T3 sequence (P08684 whole entry): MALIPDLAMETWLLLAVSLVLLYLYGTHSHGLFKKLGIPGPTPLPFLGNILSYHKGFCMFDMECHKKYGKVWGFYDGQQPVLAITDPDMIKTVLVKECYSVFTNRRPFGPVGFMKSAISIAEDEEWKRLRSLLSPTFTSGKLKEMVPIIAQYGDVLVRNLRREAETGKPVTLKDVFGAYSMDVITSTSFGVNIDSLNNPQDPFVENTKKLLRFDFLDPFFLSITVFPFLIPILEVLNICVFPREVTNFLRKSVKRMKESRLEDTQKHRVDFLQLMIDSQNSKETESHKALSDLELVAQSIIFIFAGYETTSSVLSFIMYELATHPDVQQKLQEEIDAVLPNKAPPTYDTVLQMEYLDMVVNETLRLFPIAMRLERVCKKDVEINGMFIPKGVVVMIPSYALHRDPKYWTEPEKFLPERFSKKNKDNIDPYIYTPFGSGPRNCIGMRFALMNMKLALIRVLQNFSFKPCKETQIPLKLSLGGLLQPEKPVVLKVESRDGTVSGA

Cytochrome P450 1A2 = target: T4, Cytochrome P450 1A2 (Homo sapiens, UniProt P05177); assay: Reversible inhibition of CYP1A2 in human liver microsomes using phenacetin as substrate by LC/MS/MS analysis; type: ADME, Microsome
T4 sequence (P05177 whole entry): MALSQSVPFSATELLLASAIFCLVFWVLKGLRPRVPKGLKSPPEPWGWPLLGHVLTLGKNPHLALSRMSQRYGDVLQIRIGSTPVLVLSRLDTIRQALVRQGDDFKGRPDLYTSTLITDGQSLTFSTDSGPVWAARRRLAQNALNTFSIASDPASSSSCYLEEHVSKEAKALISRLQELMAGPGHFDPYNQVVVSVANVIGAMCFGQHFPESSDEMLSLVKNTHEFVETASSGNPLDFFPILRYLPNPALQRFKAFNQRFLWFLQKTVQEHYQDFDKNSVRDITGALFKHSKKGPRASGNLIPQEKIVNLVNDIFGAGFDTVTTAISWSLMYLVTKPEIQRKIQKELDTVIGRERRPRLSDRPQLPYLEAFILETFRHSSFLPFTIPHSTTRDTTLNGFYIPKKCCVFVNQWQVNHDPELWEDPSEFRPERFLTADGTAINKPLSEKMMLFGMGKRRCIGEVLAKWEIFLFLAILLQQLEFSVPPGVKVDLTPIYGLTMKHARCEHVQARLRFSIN

Cytochrome P450 3A4 [10] = target: T3, Cytochrome P450 3A4; assay: Reversible inhibition of CYP3A4 in human liver microsomes using midazolam as substrate by LC/MS/MS analysis; type: ADME, Microsome
[11] = target: Tyrosine-protein kinase JAK3 (Homo sapiens, UniProt P52333)
[12] = Oral bioavailability in cynomolgus monkey at 2 mg/kg by LC/MS/MS analysis; type: ADME, organism-based, Macaca fascicularis; settings: in vivo
[13] = Oral bioavailability in Beagle dog at 2 mg/kg by LC/MS/MS analysis; type: ADME, organism-based, Canis lupus familiaris; settings: Beagle, in vivo
[14] = Oral bioavailability in Sprague-Dawley rat at 2 mg/kg by LC/MS/MS analysis; type: ADME, organism-based; settings: Sprague-Dawley, in vivo
[15] = Cmax in cynomolgus monkey at 2 mg/kg, po by LC/MS/MS analysis; type: ADME, organism-based, Macaca fascicularis; parameters: dose 2 mg/kg, route oral; settings: in vivo
[16] = Cmax in Beagle dog at 2 mg/kg, po by LC/MS/MS analysis; type: ADME, organism-based, Canis lupus familiaris; parameters: dose 2 mg/kg, route oral; settings: in vivo
[17] = AUC in cynomolgus monkey at 2 mg/kg, po by LC/MS/MS analysis; type: ADME, organism-based, Macaca fascicularis; parameters: dose 2 mg/kg, route oral; settings: plasma
[18] = AUC in Beagle dog at 2 mg/kg, po by LC/MS/MS analysis; type: ADME, organism-based, Canis lupus familiaris; parameters: dose 2 mg/kg, route oral; settings: plasma
[19] = AUC in Sprague-Dawley rat at 2 mg/kg, po by LC/MS/MS analysis; type: ADME, organism-based; parameters: dose 2 mg/kg, route oral; settings: plasma
[20] = Half life in cynomolgus monkey at 0.4 mg/kg, iv by LC/MS/MS analysis; type: ADME, organism-based, Macaca fascicularis; parameters: dose 0.4 mg/kg, route intravenous; settings: in vivo
[21] = Half life in Beagle dog at 0.4 mg/kg, iv by LC/MS/MS analysis; type: ADME, organism-based, Canis lupus familiaris; parameters: dose 0.4 mg/kg, route intravenous; settings: in vivo
[22] = Half life in Sprague-Dawley rat at 0.4 mg/kg, iv by LC/MS/MS analysis; type: ADME, organism-based; parameters: dose 0.4 mg/kg, route intravenous; settings: in vivo
[23] = Clearance in Beagle dog at 0.4 mg/kg, iv by LC/MS/MS analysis; type: ADME, organism-based, Canis lupus familiaris; parameters: dose 0.4 mg/kg, route intravenous; settings: in vivo
[24] = Clearance in cynomolgus monkey at 0.4 mg/kg, iv by LC/MS/MS analysis; type: ADME, organism-based, Macaca fascicularis; parameters: dose 0.4 mg/kg, route intravenous; settings: in vivo
[25] = Clearance in Sprague-Dawley rat at 0.4 mg/kg, iv by LC/MS/MS analysis; type: ADME, organism-based; parameters: dose 0.4 mg/kg, route intravenous; settings: in vivo
[26] = Metabolic stability in monkey hepatocytes assessed as hepatic clearance; type: ADME, cell-based, Macaca mulatta, Liver, Hepatocyte; settings: rhesus monkey
[27] = Metabolic stability in dog hepatocytes assessed as hepatic clearance; type: ADME, cell-based, Canis lupus familiaris, Liver, Hepatocyte
[28] = Metabolic stability in rat hepatocytes assessed as hepatic clearance; type: ADME, cell-based, Liver, Hepatocyte
[29] = Plasma protein binding in cynomolgus monkey; type: ADME, cell-free, Macaca fascicularis; settings: read-out: PPB (converted)
[30] = Plasma protein binding in dog; type: ADME, cell-free, Canis lupus familiaris; settings: read-out: PPB (converted)
[31] = Apparent permeability across basolateral to apical side in dog MDCK cells; type: ADME, cell-based, Canis lupus familiaris
[32] = Plasma protein binding in rat; type: ADME, cell-free; settings: read-out: PPB (converted)
[33] = Thermodynamic solubility in aqueous buffer at pH 7.4; type: physicochemical; settings: read-out: Therm_solubility
[34] = Thermodynamic solubility in aqueous buffer at pH 2; type: physicochemical; settings: read-out: Therm_solubility
[35] = Cmax in Sprague-Dawley rat at 2 mg/kg, po by LC/MS/MS analysis; type: ADME, organism-based; parameters: dose 2 mg/kg, route oral; settings: in vivo
Cytochrome P450 2C19 = Cytochrome P450 2C19 (Homo sapiens, UniProt P33261)
Chain of Cytochrome P450 2C19 (P33261 whole entry): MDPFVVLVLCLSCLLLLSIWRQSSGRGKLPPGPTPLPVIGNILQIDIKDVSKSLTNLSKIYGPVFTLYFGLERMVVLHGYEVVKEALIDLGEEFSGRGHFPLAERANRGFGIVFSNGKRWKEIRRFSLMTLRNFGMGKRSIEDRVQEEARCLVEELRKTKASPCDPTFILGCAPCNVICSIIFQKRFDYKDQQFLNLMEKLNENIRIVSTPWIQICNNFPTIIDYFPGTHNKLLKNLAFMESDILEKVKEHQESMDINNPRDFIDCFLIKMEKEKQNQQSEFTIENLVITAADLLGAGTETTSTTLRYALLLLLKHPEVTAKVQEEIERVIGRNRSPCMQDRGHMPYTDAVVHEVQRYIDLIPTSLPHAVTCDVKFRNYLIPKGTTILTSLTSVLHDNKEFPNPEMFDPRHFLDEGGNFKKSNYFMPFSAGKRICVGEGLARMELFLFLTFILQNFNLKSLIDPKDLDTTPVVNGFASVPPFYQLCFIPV

Cytochrome P450 2D6 = Cytochrome P450 2D6 (Homo sapiens, UniProt P10635)
Cytochrome P450 2C9 = Cytochrome P450 2C9 (Homo sapiens, UniProt P11712)
Chain of Cytochrome P450 2C9 (P11712 whole entry): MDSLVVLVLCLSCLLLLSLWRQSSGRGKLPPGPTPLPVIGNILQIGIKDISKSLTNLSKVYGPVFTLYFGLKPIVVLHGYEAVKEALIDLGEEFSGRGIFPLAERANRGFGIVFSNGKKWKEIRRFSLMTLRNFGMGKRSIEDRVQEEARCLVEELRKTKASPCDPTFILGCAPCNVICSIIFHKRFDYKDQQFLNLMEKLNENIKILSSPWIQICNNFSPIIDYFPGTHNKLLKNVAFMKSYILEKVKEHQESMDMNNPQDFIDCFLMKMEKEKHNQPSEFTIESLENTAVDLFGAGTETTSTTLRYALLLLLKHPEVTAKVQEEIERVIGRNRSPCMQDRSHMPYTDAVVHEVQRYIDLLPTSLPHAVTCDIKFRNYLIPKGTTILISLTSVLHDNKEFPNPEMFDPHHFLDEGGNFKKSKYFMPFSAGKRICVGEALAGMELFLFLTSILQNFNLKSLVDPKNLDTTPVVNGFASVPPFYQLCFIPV

[36] = target: Voltage-gated inwardly rectifying potassium channel KCNH2 (Homo sapiens, UniProt Q12809)
[37] = target: T5, Non-receptor tyrosine-protein kinase TYK2 (Homo sapiens, UniProt P29597)
T5 sequence (P29597 whole entry): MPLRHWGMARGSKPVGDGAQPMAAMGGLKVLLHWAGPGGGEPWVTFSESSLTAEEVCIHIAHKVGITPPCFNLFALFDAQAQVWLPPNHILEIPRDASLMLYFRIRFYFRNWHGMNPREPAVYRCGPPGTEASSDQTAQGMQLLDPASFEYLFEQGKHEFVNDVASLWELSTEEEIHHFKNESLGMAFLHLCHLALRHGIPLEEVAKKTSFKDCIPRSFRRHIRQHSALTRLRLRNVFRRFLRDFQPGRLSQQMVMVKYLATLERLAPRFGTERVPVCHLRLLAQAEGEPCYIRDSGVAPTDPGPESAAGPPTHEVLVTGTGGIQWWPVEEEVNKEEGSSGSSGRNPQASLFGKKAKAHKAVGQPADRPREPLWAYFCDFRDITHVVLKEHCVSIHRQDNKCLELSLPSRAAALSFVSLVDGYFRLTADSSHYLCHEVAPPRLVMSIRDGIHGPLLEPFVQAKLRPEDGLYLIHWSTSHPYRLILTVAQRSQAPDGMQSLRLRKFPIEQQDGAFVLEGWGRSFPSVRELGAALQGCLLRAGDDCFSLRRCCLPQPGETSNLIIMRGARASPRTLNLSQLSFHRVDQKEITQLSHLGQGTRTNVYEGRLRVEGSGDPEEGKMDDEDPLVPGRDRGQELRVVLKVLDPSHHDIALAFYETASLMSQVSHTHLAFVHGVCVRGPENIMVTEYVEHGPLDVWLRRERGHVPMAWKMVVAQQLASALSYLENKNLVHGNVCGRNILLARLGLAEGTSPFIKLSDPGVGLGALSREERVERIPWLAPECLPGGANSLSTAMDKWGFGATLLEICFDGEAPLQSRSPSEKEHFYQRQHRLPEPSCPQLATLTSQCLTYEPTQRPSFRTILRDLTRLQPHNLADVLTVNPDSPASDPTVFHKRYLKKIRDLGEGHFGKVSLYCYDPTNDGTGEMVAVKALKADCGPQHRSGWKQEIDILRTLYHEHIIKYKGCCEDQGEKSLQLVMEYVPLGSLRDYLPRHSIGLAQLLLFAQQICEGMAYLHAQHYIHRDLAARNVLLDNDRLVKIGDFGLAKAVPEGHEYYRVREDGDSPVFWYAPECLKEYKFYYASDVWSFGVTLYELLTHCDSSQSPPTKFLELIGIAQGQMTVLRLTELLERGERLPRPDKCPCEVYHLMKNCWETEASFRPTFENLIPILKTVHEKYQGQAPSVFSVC

[38] = target: T5, Non-receptor tyrosine-protein kinase TYK2; remark: listed apart in the source

C[C@@H](O)c1nc2cnc3[nH]ccc3c2n1C1CCN(CCC#N)CC1
CLhep predicted [1]: 4.2 mL/min/kg
CLhep predicted [2]: 6.8 mL/min/kg
Papp A→B [3]: 1.9 ×10⁻⁶ cm/s
EC50 [4]: 320 nM
EC50 [5]: 510 nM
Ki [6]: 3.4 nM

OCCc1nc2cnc3[nH]ccc3c2n1C1CCCCC1
CLhep predicted [1]: 5.3 mL/min/kg
CLhep predicted [2]: 17 mL/min/kg
Papp A→B [3]: 23 ×10⁻⁶ cm/s
EC50 [7]: 1500 nM
Ki [8]: 18 nM
EC50 [4]: 1500 nM
EC50 [5]: 130 nM
Ki [6]: 3.5 nM

C[C@@H](O)c1nc2cnc3[nH]ccc3c2n1C1CCN(CC(F)(F)F)CC1
CLhep predicted [1]: 9.2 mL/min/kg
CLhep predicted [2]: 8.5 mL/min/kg
Papp A→B [3]: 25 ×10⁻⁶ cm/s
EC50 [4]: 820 nM
EC50 [5]: 110 nM
Ki [6]: 2.6 nM

C[C@@H](O)c1nc2cnc3[nH]ccc3c2n1C1CCOCC1
Ki [6]: 31 nM

C[C@@H](O)c1nc2cnc3[nH]ccc3c2n1[C@H]1CC[C@H](NCC(F)(F)F)C1
CLhep predicted [1]: 5.6 mL/min/kg
CLhep predicted [2]: 3.5 mL/min/kg
Papp A→B [3]: 10 ×10⁻⁶ cm/s
EC50 [4]: 82 nM
EC50 [5]: 74 nM
Ki [6]: 1.2 nM

OCc1nc2cnc3[nH]ccc3c2n1C1CCCCC1
CLhep predicted [1]: 5.6 mL/min/kg
CLhep predicted [2]: 19 mL/min/kg
Papp A→B [3]: 24 ×10⁻⁶ cm/s
EC50 [7]: 730 nM
Ki [8]: 8.3 nM
EC50 [4]: 313 nM
EC50 [5]: 64 nM
Ki [6]: 1.1 nM

C[C@@H](O)c1nc2cnc3[nH]ccc3c2n1[C@H]1CC[C@H](CCC#N)CC1
IC50 (Cytochrome P450 3A4 [9]): > 10000 nM
IC50 (Cytochrome P450 1A2): > 10000 nM
IC50 (Cytochrome P450 3A4 [10]): 6700 nM
Ki [11]: 7.8 nM
bioavailability [12]: 8%
bioavailability [13]: 125%
bioavailability [14]: 50%
Cmax [15]: 70 nM
Cmax [16]: 1300 nM
AUC [17]: 0.26 µM·h
AUC [18]: 4.3 µM·h
AUC [19]: 0.42 µM·h
half-life [20]: 48 min
half-life [21]: 78 min
half-life [22]: 36 min
clearance [23]: 29 mL/min/kg
clearance [24]: 29 mL/min/kg
clearance [25]: 126 mL/min/kg
CLhep predicted [26]: 36 mL/min/kg
CLhep predicted [27]: 11 mL/min/kg
CLhep predicted [28]: 28 mL/min/kg
fraction unbound [29]: 0.24
fraction unbound [30]: 0.34
Papp B→A [31]: 9.3 ×10⁻⁶ cm/s
fraction unbound [32]: 0.32
solubility thermodynamic [33]: 16 µM (≈ 5.4 µg/mL)
solubility thermodynamic [34]: > 4000 µM
CLhep predicted [1]: 5.2 mL/min/kg
CLhep predicted [2]: 5.7 mL/min/kg
Papp A→B [3]: 4.7 ×10⁻⁶ cm/s
Cmax [35]: 220 nM
IC50 (Cytochrome P450 2C19): > 10000 nM
IC50 (Cytochrome P450 2D6): > 10000 nM
IC50 (Cytochrome P450 2C9): > 10000 nM
IC50 [36]: 20000 nM

CC(C)(O)c1nc2cnc3[nH]ccc3c2n1C1CCCCC1
Papp A→B [3]: 19 ×10⁻⁶ cm/s
EC50 [7]: 4400 nM
Ki [8]: 76 nM
EC50 [5]: 330 nM
Ki [6]: 13 nM

CC[C@@H](O)c1nc2cnc3[nH]ccc3c2n1C1CCCCC1
CLhep predicted [1]: 7.6 mL/min/kg
CLhep predicted [2]: 12 mL/min/kg
Papp A→B [3]: 22 ×10⁻⁶ cm/s

C[C@@H](O)c1nc2cnc3[nH]ccc3c2n1[C@H]1CC[C@H](NCC(F)(F)F)CC1
IC50 (Cytochrome P450 3A4 [9]): > 10000 nM
IC50 (Cytochrome P450 1A2): > 10000 nM
IC50 (Cytochrome P450 3A4 [10]): > 10000 nM
Ki [11]: 76 nM
bioavailability [13]: 139%
bioavailability [14]: 54%
Cmax [16]: 2100 nM
AUC [18]: 9.9 µM·h
AUC [19]: 1.4 µM·h
half-life [21]: 102 min
half-life [22]: 30 min
clearance [23]: 13 mL/min/kg
clearance [25]: 36 mL/min/kg
CLhep predicted [26]: 26 mL/min/kg
CLhep predicted [27]: 2.3 mL/min/kg
CLhep predicted [28]: 11 mL/min/kg
fraction unbound [29]: 0.35
fraction unbound [30]: 0.45
Papp B→A [31]: 10 ×10⁻⁶ cm/s
fraction unbound [32]: 0.44
solubility thermodynamic [33]: 130 µM (≈ 49.6 µg/mL)
solubility thermodynamic [34]: 3900 µM (≈ 1490 µg/mL)
CLhep predicted [1]: 3.3 mL/min/kg
CLhep predicted [2]: 2 mL/min/kg
Papp A→B [3]: 6.7 ×10⁻⁶ cm/s
Cmax [35]: 960 nM
IC50 (Cytochrome P450 2C19): > 10000 nM
IC50 (Cytochrome P450 2D6): > 10000 nM
IC50 (Cytochrome P450 2C9): > 10000 nM
IC50 [36]: > 100000 nM
EC50 [37]: 310 nM
Ki [38]: 3.4 nM
EC50 [4]: 29 nM
EC50 [5]: 28 nM
Ki [6]: 0.8 nM

C[C@@H](O)c1nc2cnc3[nH]ccc3c2n1[C@@H]1CCC[C@@H](O)C1
Papp A→B [3]: 1.1 ×10⁻⁶ cm/s
EC50 [4]: 140 nM
EC50 [5]: 120 nM

C[C@@H](O)c1nc2cnc3[nH]ccc3c2n1[C@@H]1CCCN(C(=O)CC#N)C1
CLhep predicted [1]: 1 mL/min/kg
Papp A→B [3]: 0.2 ×10⁻⁶ cm/s
EC50 [5]: 8200 nM
Ki [6]: 5.2 nM

C[C@@H](O)c1nc2cnc3[nH]ccc3c2n1[C@H]1CC[C@@H](NCC(F)(F)F)CC1
CLhep predicted [1]: 18 mL/min/kg
CLhep predicted [2]: 16 mL/min/kg
Ki [6]: 53 nM
